# According to paper PMC12692713, “Neuroprotective and Antioxidant Properties of Different Novel Steroid-Derived Nitrones and Oximes on Cerebral Ischemia In Vitro” (International Journal of Molecular Sciences, 2025):
# Read-outs that look alike come from different tables or passages of the source.
# Biological target: T1, soybean lipoxygenase (LOX) (Glycine max, UniProt P08170)
# T1 construct: gene LOX1.1
# T1 sequence (P08170 1-839): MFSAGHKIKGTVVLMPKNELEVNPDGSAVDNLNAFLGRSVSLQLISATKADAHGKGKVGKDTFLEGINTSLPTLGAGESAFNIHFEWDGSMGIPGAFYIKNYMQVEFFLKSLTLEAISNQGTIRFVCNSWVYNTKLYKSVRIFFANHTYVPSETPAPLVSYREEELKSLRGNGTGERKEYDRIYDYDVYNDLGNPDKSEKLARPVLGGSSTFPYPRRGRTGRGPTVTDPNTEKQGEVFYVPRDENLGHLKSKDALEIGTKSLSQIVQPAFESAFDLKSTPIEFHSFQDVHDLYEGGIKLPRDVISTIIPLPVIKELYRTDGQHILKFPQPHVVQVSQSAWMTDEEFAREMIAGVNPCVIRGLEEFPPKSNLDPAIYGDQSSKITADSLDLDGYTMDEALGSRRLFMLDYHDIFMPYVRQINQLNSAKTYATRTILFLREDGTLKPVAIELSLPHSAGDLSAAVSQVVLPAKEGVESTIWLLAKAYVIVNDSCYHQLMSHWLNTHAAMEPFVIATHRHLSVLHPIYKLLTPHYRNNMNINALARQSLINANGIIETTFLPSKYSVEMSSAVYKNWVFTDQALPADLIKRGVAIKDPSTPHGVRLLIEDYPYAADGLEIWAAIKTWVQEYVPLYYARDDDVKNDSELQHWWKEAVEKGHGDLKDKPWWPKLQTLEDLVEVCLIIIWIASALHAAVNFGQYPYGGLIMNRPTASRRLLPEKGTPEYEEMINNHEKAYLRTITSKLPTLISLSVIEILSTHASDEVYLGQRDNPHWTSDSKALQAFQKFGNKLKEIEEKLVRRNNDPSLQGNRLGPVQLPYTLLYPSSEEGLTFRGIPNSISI
# Assay: UV absorbance at […] nm, conversion of sodium linoleate to 13-hydroperoxylinoleic acid, Tris pH […]
# Format: biochemical
IC50 (read-out: LOX Inhibition (% or IC50)) [µM],SMILES,IC50 [µM]
3.8 ± 0.3,CC#C[C@]1(O)CC[C@H]2[C@@H]3CCC4=CC(=NO)CCC4=C3[C@@H](c3ccc(N(C)C)cc3)C[C@@]21C [MC4],
,C#C[C@]1(O)CC[C@H]2[C@@H]3CCC4=CC(=NO)CC[C@]4(C)[C@H]3CC[C@@]21C (mixture of isomers) [MC2],97 ± 1.5
,C#C[C@]1(O)CC[C@H]2[C@@H]3CCC4=CC(=[N+](C)[O-])CC[C@]4(C)[C@H]3CC[C@@]21C [MC3],62 ± 0.8
